This is an account of results in patent publication US8476292B2, “Amide and carbamate derivatives of N-{2-[4-amino-2-(ethoxymethyl)-1H-imidazo[4,5-c] quinolin-1-Yl]-1,1-dimethylethyl}methanesulfonamide and methods” (3M Innovative Properties Company, priority 2005, dated 2013).

For `CCOCc1nc2c(NC(C)=O)nc3ccccc3c2n1CC(C)(C)NS(C)(=O)=O` [Example 1, N-(2-Ethoxymethyl-1-{2-methyl-2-[(methylsulfonyl)amino]propyl}-1H-imidazo[4,5-c]quinolin-4-yl)acetamide], the melting point was 75 to 76 °C.

`CCOCc1nc2c(NC(=O)c3ccccc3)nc3ccccc3c2n1CC(C)(C)NS(C)(=O)=O` [Example 2, N-(2-Ethoxymethyl-1-{2-methyl-2-[(methylsulfonyl)amino]propyl}-1H-imidazo[4,5-c]quinolin-4-yl)benzamide] came in with a melting point of 80 to 83 °C.

The compound `CCOCc1nc2c(NC(=O)C(C)C)nc3ccccc3c2n1CC(C)(C)NS(C)(=O)=O` [Example 3] showed a melting point of 67 to 70 °C.

`CCOCc1nc2c(NC(=O)OCC)nc3ccccc3c2n1CC(C)(C)NS(C)(=O)=O` [Example 5, Ethyl 2-Ethoxymethyl-1-{2-methyl-2-[(methylsulfonyl)amino]propyl}-1H-imidazo[4,5-c]quinolin-4-ylcarbamate] displayed a melting point of 163 to 165 °C.

`CCCOC(=O)Nc1nc2ccccc2c2c1nc(COCC)n2CC(C)(C)NS(C)(=O)=O` [Example 6, Propyl 2-Ethoxymethyl-1-{2-methyl-2-[(methylsulfonyl)amino]propyl}-1H-imidazo[4,5-c]quinolin-4-ylcarbamate] gave a melting point of 177 to 179 °C.

For the compound `CCCCOC(=O)Nc1nc2ccccc2c2c1nc(COCC)n2CC(C)(C)NS(C)(=O)=O` [Example 7, Butyl 2-Ethoxymethyl-1-{2-methyl-2-[(methylsulfonyl)amino]propyl}-1H-imidazo[4,5-c]quinolin-4-ylcarbamate], the melting point was in the range of 125 to 127 °C.
